Consider 21 molecules from patent US20260242391A1 (priority 2023, published 2026).

Some results are limits rather than exact numbers.

In one data set the test system is HL-60. The data set is described as follows: HL-60 differentiation potency. Type of data set: cell-based. The following applies: Homo sapiens.
A short description of another data set: in vitro. The following applies: human.

As a reminder, the EC50 is the concentration needed to bring the measured effect to its halfway point. The low end stands for higher potency in that assay, the high end for lower potency in that assay. By IC50 is commonly meant the concentration that gives 50% inhibition. Higher therefore signals lower potency. As for `C[C@H]1[C@@H](OC[C@]2(F)CC[C@H](C(=O)O)CC2)O[C@@H]2O[C@@]3(C)CC[C@H]4[C@H](C)CC[C@@H]1[C@@]24OO3` [Compound 140, (1S,4r)-4-fluoro-4-((((3R,5aS,6R,8aS, 9R,10S,12R, 12aR)-3,6,9-trimethyldeca-hydro-12H-3,12-epoxy[1,2]dioxepino[4,3-i]isochromen-10-yl)oxy)methyl) cyclohexane-1-carboxylic acid], the concentration for a half-maximal effect (EC50) in the data set with HL-60 came to 314 nM. Moreover, the IC50 in the data set “in vitro” worked out at 19000 nM.
The matching figures for `C[C@H]1[C@H](NCCc2ccccc2)O[C@@H]2O[C@@]3(C)CC[C@H]4[C@H](C)CC[C@@H]1[C@@]24OO3` [Compound 94, (3R,5aS,6R,8aS, 9R,10R,12R, 12aR)-3,6,9-trimethyl-N-phenethyldeca-hydro-12H-3,12-epoxy[1,2] dioxepino[4,3-i] isochromen-10-amine]: 257 nM and 315 nM.
For `C[C@@H]1CC[C@H]2[C@@H](C)C(OCc3ccc(C(=O)O)cc3F)O[C@@H]3O[C@@]4(C)CC[C@@H]1[C@]32OO4` (stereo in doubt) [Compound 45, 3-fluoro-4-((((3R,5aS,6R,8aS, 9R,10S,12R, 12aR)-3,6,9-trimethyldeca-hydro-12H-3,12-epoxy[1,2]dioxepino[4,3-i]isochromen-10-yl)oxy)methyl) benzoic acid] the same measures were 662 nM and more than 20000 nM.
The matching figures for `C[C@H]1[C@@H](OCCS(C)(=O)=O)O[C@@H]2O[C@@]3(C)CC[C@H]4[C@H](C)CC[C@@H]1[C@@]24OO3` [Compound 90, (3R,5aS,6R,8aS, 9R,10S,12R, 12aR)-3,6,9-trimethyl-10-(2-(methylsulfonyl)ethoxy)deca-hydro-12H-3,12-epoxy[1,2] dioxepino[4,3-i] isochromene]: more than 20000 nM and more than 20000 nM.
For the molecule `C[C@H]1[C@@H](OC[C@H]2C[C@@H](C(=O)O)C[C@@H](C(=O)O)C2)O[C@@H]2O[C@@]3(C)CC[C@H]4[C@H](C)CC[C@@H]1[C@@]24OO3` [Compound 147, (1R,3S,5r)-5-((((3R,5aS,6R,8aS, 9R,10S,12R, 12aR)-3,6,9-trimethyldeca-hydro-12H-3,12-epoxy[1,2]dioxepino[4,3-i]isochromen-10-yl)oxy)methyl) cyclohexane-1,3-dicarboxylic acid], the EC50 in the data set with HL-60 was more than 20000 nM. In “in vitro”, this molecule registered an IC50 of more than 20000 nM.
`C[C@H]1[C@@H](OCc2ccc(C#N)cc2)O[C@@H]2O[C@@]3(C)CC[C@H]4[C@H](C)CC[C@@H]1[C@@]24OO3` [Compound 19, 4-((((3R,5aS,6R, 8aS,9R,10S,12R, 12aR)-3,6,9-trimethyldeca-hydro-12H-3,12-epoxy[1,2]dioxepino[4,3-i]isochromen-10-yl)oxy)methyl) benzonitrile] displayed a concentration giving a half-maximal response (EC50) in the data set on HL-60 of 104 nM. In the data set “in vitro”, this molecule had an IC50 of 138 nM.
The matching figures for `C[C@H]1[C@@H](Oc2ccc(CC(=O)O)c(F)c2)O[C@@H]2O[C@@]3(C)CC[C@H]4[C@H](C)CC[C@@H]1[C@@]24OO3` [Compound 26, 2-(2-fluoro-4-(((3R,5aS,6R, 8aS,9R,10S,12R, 12aR)-3,6,9-trimethyldeca-hydro-12H-3,12-epoxy[1,2]dioxepino[4,3-i]isochromen-10-yl)oxy)phenyl) acetic acid]: 225 nM and more than 20000 nM.
In the data set on HL-60, `C[C@H]1[C@H](N(C)CCS(C)(=O)=O)O[C@@H]2O[C@@]3(C)CC[C@H]4[C@H](C)CC[C@@H]1[C@@]24OO3` [Compound 17, (3R,5aS,6R,8aS, 9R,10R,12R, 12aR)-N,3,6,9-tetramethyl-N-(2-(methylsulfonyl)ethyl)decahydro-12H-3,12-epoxy [1,2]dioxepino [4,3-i] isochromen-10-amine] gave an EC50 of 95.5 nM. Also, the IC50 in “in vitro” came out at 243 nM.
As for `C[C@H]1[C@@H](OCc2ccc(-c3nn[nH]n3)cc2)O[C@@H]2O[C@@]3(C)CC[C@H]4[C@H](C)CC[C@@H]1[C@@]24OO3` [Compound 38, 5-(4-((((3R,5aS,6R,8aS, 9R,10S,12R, 12aR)-3,6,9-trimethyldeca-hydro-12H-3,12-epoxy[1,2]dioxepino[4,3-i]isochromen-10-yl)oxy)methyl)phenyl)-2H-tetrazole], the EC50 with HL-60 is 616 nM. The IC50 in “in vitro” amounted to 13100 nM.
For `C[C@H]1[C@H](OC[C@H]2CCC[C@@H](C(=O)O)C2)O[C@@H]2O[C@@]3(C)CC[C@H]4[C@H](C)CC[C@@H]1[C@@]24OO3` [Compound 173, (1R,3S)-3-((((3R,5aS,6R,8aS, 9R,10R,12R, 12aR)-3,6,9-trimethyldeca-hydro-12H-3,12-epoxy[1,2]dioxepino[4,3-i]isochromen-10-yl)oxy)methyl) cyclohexane-1-carboxylic acid] the same measures were 170 nM and more than 20000 nM.
Regarding `C[C@H]1[C@@H](OCc2ccc(C(=O)NO)cc2)O[C@@H]2O[C@@]3(C)CC[C@H]4[C@H](C)CC[C@@H]1[C@@]24OO3` [Compound 5, N-hydroxy-4-((((3R,5aS,6R,8aS, 9R,10S,12R, 12aR)-3,6,9-trimethyldeca-hydro-12H-3,12-epoxy[1,2]dioxepino[4,3-i]isochromen-10-yl)oxy)methyl) benzamide], the EC50 with HL-60 is 52.2 nM. In “in vitro”, the 50% inhibitory concentration (IC50) amounted to 2880 nM.
For `C[C@H]1[C@H](NCc2ccncc2)O[C@@H]2O[C@@]3(C)CC[C@H]4[C@H](C)CC[C@@H]1[C@@]24OO3` [Compound 98, (3R,5aS,6R,8aS, 9R,10R,12R, 12aR)-3,6,9-trimethyl-N-(pyridin-4-ylmethyl)deca-hydro-12H-3,12-epoxy[1,2] dioxepino[4,3-i] isochromen-10-amine] the same measures were more than 20000 nM and more than 20000 nM.
The matching figures for `C[C@H]1[C@@H](OCc2ccc(C(=O)O)c(F)c2)O[C@@H]2O[C@@]3(C)CC[C@H]4[C@H](C)CC[C@@H]1[C@@]24OO3` [Compound 24, 2-fluoro-4-((((3R,5aS,6R,8aS, 9R,10S,12R, 12aR)-3,6,9-trimethyldeca-hydro-12H-3,12-epoxy[1,2]dioxepino[4,3-i]isochromen-10-yl)oxy)methyl) benzoic acid]: 210 nM and more than 20000 nM.
The matching figures for `C[C@H]1[C@@H](Oc2ccc3c(c2)OC(C(=O)O)C3)O[C@@H]2O[C@@]3(C)CC[C@H]4[C@H](C)CC[C@@H]1[C@@]24OO3` (stereo partly drawn) [Compound 154, 6-(((3R,5aS,6R,8aS, 9R,10S,12R, 12aR)-3,6,9-trimethyldeca-hydro-12H-3,12-epoxy[1,2]dioxepino[4,3-i]isochromen-10-yl)oxy)-2,3-dihydrobenzo-furan-2-carboxylic acid]: 70.8 nM and 9000 nM.
`C[C@H]1[C@@H](OCC(=O)N2C[C@H]3[C@@H]([C@H]2C(=O)O)C3(C)C)O[C@@H]2O[C@@]3(C)CC[C@H]4[C@H](C)CC[C@@H]1[C@@]24OO3` [Compound 151, (1R,2S,5S)-6,6-dimethyl-3-(2-(((3R,5aS,6R,8aS, 9R,10S,12R, 12aR)-3,6,9-trimethyldeca-hydro-12H-3,12-epoxy[1,2]dioxepino[4,3-i]isochromen-10-yl)oxy)acetyl)-3-azabicyclo[3.1.0] hexane-2-carboxylic acid] registered an EC50 in the data set with HL-60 of 1570 nM. Also, the IC50 in “in vitro” was more than 20000 nM.
With `Cc1cc(CO[C@H]2O[C@@H]3O[C@@]4(C)CC[C@H]5[C@H](C)CC[C@@H]([C@H]2C)[C@@]35OO4)ccc1C(=O)O` [Compound 41, 2-methyl-4-((((3R,5aS,6R, 8aS,9R,10S,12R, 12aR)-3,6,9-trimethyldeca-hydro-12H-3,12-epoxy[1,2]dioxepino[4,3-i]isochromen-10-yl)oxy)methyl) benzoic acid], the EC50 in the data set with HL-60 was determined as 735 nM. Also, the IC50 in the data set “in vitro” was more than 20000 nM.
The matching figures for `C[C@H]1[C@H](OCc2ccc(-c3nn[nH]n3)cc2)O[C@@H]2O[C@@]3(C)CC[C@H]4[C@H](C)CC[C@@H]1[C@@]24OO3` [Compound 2, 5-(4-((((3R,5aS,6R, 8aS,9R,10R,12R, 12aR)-3,6,9-trimethyldeca-hydro-12H-3,12-epoxy[1,2]dioxepino[4,3-i]isochromen-10-yl)oxy)methyl)phenyl)-2H-tetrazole]: 41.3 nM and 58.5 nM.
For `Cc1cc(CO[C@@H]2O[C@@H]3O[C@@]4(C)CC[C@H]5[C@H](C)CC[C@@H]([C@H]2C)[C@@]35OO4)ccc1C(=O)O` [Compound 51, 2-methyl-4-((((3R,5aS,6R,8aS, 9R,10R,12R, 12aR)-3,6,9-trimethyldeca-hydro-12H-3,12-epoxy[1,2]dioxepino[4,3-i]isochromen-10-yl)oxy)methyl) benzoic acid] the same measures were 2410 nM and more than 20000 nM.
The matching figures for `C[C@H]1[C@@H](OCc2cc(F)c(C(=O)O)c(F)c2)O[C@@H]2O[C@@]3(C)CC[C@H]4[C@H](C)CC[C@@H]1[C@@]24OO3` [Compound 29, 2,6-difluoro-4-((((3R,5aS,6R, 8aS,9R,10S,12R, 12aR)-3,6,9-trimethyldeca-hydro-12H-3,12-epoxy[1,2]dioxepino[4,3-i]isochromen-10-yl)oxy)methyl) benzoic acid]: 283 nM and more than 20000 nM.
Regarding `C[C@H]1[C@@H](OCC#Cc2ccc(C(=O)O)cc2F)O[C@@H]2O[C@@]3(C)CC[C@H]4[C@H](C)CC[C@@H]1[C@@]24OO3` [Compound 165, 3-fluoro-4-(3-(((3R,5aS,6R,8aS, 9R,10S,12R, 12aR)-3,6,9-trimethyldeca-hydro-12H-3,12-epoxy[1,2]dioxepino[4,3-i]isochromen-10-yl)oxy)prop-1-yn-1-yl) benzoic acid], in the data set with HL-60, the EC50 worked out at 79.5 nM. Also, in the data set “in vitro”, the IC50 stood at 300 nM.
For `C[C@H]1[C@@H](Oc2ccc(C3(C(=O)O)CC3)cc2)O[C@@H]2O[C@@]3(C)CC[C@H]4[C@H](C)CC[C@@H]1[C@@]24OO3` [Compound 124, 1-(4-(((3R,5aS,6R,8aS, 9R,10S,12R, 12aR)-3,6,9-trimethyldeca-hydro-12H-3,12-epoxy[1,2]dioxepino[4,3-i]isochromen-10-yl)oxy)phenyl) cyclopropane-1-carboxylic acid] the same measures were 28.8 nM and 2450 nM.
